Reference: ChEMBL document CHEMBL1201862, “PubChem BioAssay data set” (2004)
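Protocol summary: plate cells (96-well), add compound at 5 concentrations, incubate 48 h, interpolate endpoints linearly. At the GI50, growth is halved.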 Active and inactive are the calls of the source. Rule as the data show it: active = GI50 up to about 1.1 µM and inactive = higher.

What was measured:
Assay in all cases: growth of human tumour cells (NCI), 48 h
HT-29 = system: HT-29
OVCAR-4 = system: OVCAR-4
MOLT-4 = system: MOLT-4
K562 = system: K562
CAKI-1 = system: CAKI-1
HOP-62 = system: HOP-62
SF-268 = system: SF-268
SNB-75 = system: SNB-75
OVCAR-5 = system: OVCAR-5
NCI/ADR-RES = system: NCI/ADR-RES
CCRF-CEM = system: CCRF-CEM
NCI-H460 = system: NCI-H460
PC-3 = system: PC-3
HCC 2998 = system: HCC 2998
M14 = system: M14
SF-539 = system: SF-539
IGROV-1 = system: IGROV-1
NCI-H226 = system: NCI-H226
OVCAR-8 = system: OVCAR-8
NCI-H23 = system: NCI-H23
COLO 205 = system: COLO 205
SK-MEL-5 = system: SK-MEL-5
ACHN = system: ACHN
SW-620 = system: SW-620
SF-295 = system: SF-295
Malme-3M = system: Malme-3M
EKVX = system: EKVX
786-0 = system: 786-0
TK-10 = system: TK-10
BT-549 = system: BT-549
RXF 393 = system: RXF 393
HL-60 = system: HL-60
SN12C = system: SN12C
SNB-19 = system: SNB-19
SK-MEL-2 = system: SK-MEL-2
SK-OV-3 = system: SK-OV-3
HOP-92 = system: HOP-92
MDA-N = system: MDA-N
U-251 = system: U-251
MDA-MB-231 = system: MDA-MB-231
UACC-257 = system: UACC-257
RPMI-8226 = system: RPMI-8226
A549 = system: A549
MCF7 = system: MCF7
Hs-578T = system: Hs-578T
T47D = system: T47D
UACC-62 = system: UACC-62
MDA-MB-435 = system: MDA-MB-435
UO-31 = system: UO-31
SR = system: SR
SK-MEL-28 = system: SK-MEL-28
A498 = system: A498
HCT-116 = system: HCT-116
DU-145 = system: DU-145
KM12 = system: KM12
OVCAR-3 = system: OVCAR-3
HCT-15 = system: HCT-15
NCI-H522 = system: NCI-H522
LOX IMVI = system: LOX IMVI

In the case of CCOc1cc2c(cc1O)/C(=N\N)C[C@@H]1[C@@H]2CC[C@]2(C)[C@@H](O)CC[C@@H]12, the GI50 (HT-29) is reported as 9.53 µM (inactive), the GI50 (OVCAR-4) is reported as 24.7 µM (inactive) and the GI50 (MOLT-4) is reported as 4.27 µM (inactive). The GI50 (K562) was 0.42 µM (active), the GI50 (CAKI-1) was 5.43 µM (inactive) and the GI50 (HOP-62) was 3.66 µM (inactive). The GI50 (SF-268) was 5.3 µM (inactive), the GI50 (SNB-75) was 3.1 µM (inactive) and the GI50 (OVCAR-5) was 36.4 µM (inactive). For the same compound, the GI50 (NCI/ADR-RES) was 3.86 µM (inactive), the GI50 (CCRF-CEM) was 2.38 µM (inactive) and the GI50 (NCI-H460) was 2.99 µM (inactive). For the same compound, the GI50 (PC-3) was 6.34 µM (inactive), the GI50 (HCC 2998) was 2.07 µM (inactive) and the GI50 (M14) was 4.8 µM (inactive). For the same compound, the GI50 (SF-539) was 3.13 µM (inactive), the GI50 (IGROV-1) was 6.97 µM (inactive) and the GI50 (NCI-H226) was 4.76 µM (inactive). The GI50 (OVCAR-8) was 7.1 µM (inactive), the GI50 (NCI-H23) was 7.01 µM (inactive) and the GI50 (COLO 205) was 27.4 µM (inactive). For the same compound, the GI50 (SK-MEL-5) was 1.28 µM (inactive), the GI50 (ACHN) was 5.61 µM (inactive) and the GI50 (SW-620) was 1.85 µM (inactive). The GI50 (SF-295) was 0.397 µM (active), the GI50 (Malme-3M) was 1.54 µM (inactive) and the GI50 (EKVX) was 8.28 µM (inactive). The GI50 (786-0) was 4.48 µM (inactive), the GI50 (TK-10) was 22.2 µM (inactive) and the GI50 (BT-549) was 4.26 µM (inactive). For the same compound, the GI50 (RXF 393) was 5.75 µM (inactive), the GI50 (HL-60) was 0.337 µM (active) and the GI50 (SN12C) was 9.12 µM (inactive). For the same compound, the GI50 (SNB-19) was 3.87 µM (inactive), the GI50 (SK-MEL-2) was 4.38 µM (inactive) and the GI50 (SK-OV-3) was 5.18 µM (inactive). For the same compound, the GI50 (HOP-92) was 13.2 µM (inactive), the GI50 (MDA-N) was 0.261 µM (active) and the GI50 (U-251) was 3.78 µM (inactive). For the same compound, the GI50 (MDA-MB-231) was 5.62 µM (inactive), the GI50 (UACC-257) was 7.43 µM (inactive) and the GI50 (RPMI-8226) was 4.48 µM (inactive). The GI50 (A549) was 8.75 µM (inactive), the GI50 (MCF7) was 2.68 µM (inactive) and the GI50 (Hs-578T) was 3.06 µM (inactive). For the same compound, the GI50 (T47D) was 8.32 µM (inactive), the GI50 (UACC-62) was 0.879 µM (active) and the GI50 (MDA-MB-435) was 0.281 µM (active). The GI50 (UO-31) was 3.96 µM (inactive), the GI50 (SR) was 0.333 µM (active) and the GI50 (SK-MEL-28) was 5.66 µM (inactive). For the same compound, the GI50 (A498) was 12.4 µM (inactive), the GI50 (HCT-116) was 2.34 µM (inactive) and the GI50 (DU-145) was 8.73 µM (inactive). The GI50 (KM12) was 4.71 µM (inactive), the GI50 (OVCAR-3) was 2.32 µM (inactive) and the GI50 (HCT-15) was 1.31 µM. For the same compound, the GI50 (NCI-H522) was 2.8 µM (inactive) and the GI50 (LOX IMVI) was 4.12 µM (inactive).

With C/C(=N\Nc1nc2cc(C)ccc2s1)c1ccccn1 the GI50 (HT-29) was 0.121 µM (active), the GI50 (OVCAR-4) was 0.324 µM (active) and the GI50 (MOLT-4) was < 0.0246 µM (active). For the same compound, the GI50 (K562) was 0.0948 µM (active), the GI50 (CAKI-1) was 0.0562 µM (active) and the GI50 (HOP-62) was 0.294 µM (active). For the same compound, the GI50 (SF-268) was 0.505 µM (active), the GI50 (SNB-75) was 2.23 µM (inactive) and the GI50 (OVCAR-5) was 0.661 µM (active). The GI50 (NCI/ADR-RES) was 0.261 µM (active), the GI50 (CCRF-CEM) was 0.149 µM (active) and the GI50 (NCI-H460) was 0.69 µM (active). For the same compound, the GI50 (PC-3) was 0.593 µM (active), the GI50 (HCC 2998) was 1.29 µM (inactive) and the GI50 (M14) was 0.417 µM (active). The GI50 (SF-539) was 1.39 µM (inactive), the GI50 (IGROV-1) was 0.199 µM (active) and the GI50 (NCI-H226) was 0.348 µM (active). For the same compound, the GI50 (OVCAR-8) was 0.18 µM (active), the GI50 (NCI-H23) was 0.39 µM (active) and the GI50 (COLO 205) was 0.0518 µM (active). For the same compound, the GI50 (SK-MEL-5) was 0.404 µM (active), the GI50 (ACHN) was 0.25 µM (active) and the GI50 (SW-620) was 0.209 µM (active). The GI50 (SF-295) was 1.15 µM (inactive), the GI50 (Malme-3M) was 0.332 µM (active) and the GI50 (EKVX) was 0.143 µM (active). The GI50 (786-0) was 0.519 µM (active), the GI50 (TK-10) was 2.22 µM (inactive) and the GI50 (BT-549) was 6.22 µM (inactive). The GI50 (RXF 393) was 3.63 µM (inactive), the GI50 (HL-60) was 0.158 µM (active) and the GI50 (SN12C) was 0.401 µM (active). For the same compound, the GI50 (SNB-19) was 1.38 µM (inactive), the GI50 (SK-MEL-2) was 0.4 µM (active) and the GI50 (SK-OV-3) was 0.49 µM (active). For the same compound, the GI50 (HOP-92) was 0.282 µM (active), the GI50 (MDA-N) was 1.68 µM (inactive) and the GI50 (U-251) was 0.946 µM (active). For the same compound, the GI50 (MDA-MB-231) was 0.233 µM (active), the GI50 (UACC-257) was 0.5 µM (active) and the GI50 (RPMI-8226) was 0.273 µM (active). The GI50 (A549) was 0.798 µM (active), the GI50 (MCF7) was 0.119 µM (active) and the GI50 (Hs-578T) was 1.29 µM (inactive). The GI50 (T47D) was 0.589 µM (active), the GI50 (UACC-62) was 0.596 µM (active) and the GI50 (MDA-MB-435) was 0.982 µM (active). For the same compound, the GI50 (UO-31) was 0.117 µM (active), the GI50 (SR) was 0.232 µM (active) and the GI50 (SK-MEL-28) was 1.61 µM (inactive). For the same compound, the GI50 (A498) was 1.09 µM (active), the GI50 (HCT-116) was 0.213 µM (active) and the GI50 (DU-145) was 0.652 µM (active). The GI50 (KM12) was 0.794 µM (active), the GI50 (OVCAR-3) was 0.441 µM (active) and the GI50 (HCT-15) was 0.272 µM. For the same compound, the GI50 (NCI-H522) was 0.148 µM (active) and the GI50 (LOX IMVI) was 0.481 µM (active).

O=[N+]([O-])/C=C/c1cc2ccc3ccccc3c2[nH]1 was tested, and the GI50 (HT-29) was 2.19 µM (inactive), the GI50 (OVCAR-4) was 1.98 µM (inactive) and the GI50 (MOLT-4) was 0.776 µM (active). The GI50 (K562) was 1.8 µM (inactive), the GI50 (CAKI-1) was 2.23 µM (inactive) and the GI50 (HOP-62) was 1.98 µM (inactive). The GI50 (SF-268) was 1.77 µM (inactive), the GI50 (SNB-75) was 1.79 µM (inactive) and the GI50 (OVCAR-5) was 2.29 µM (inactive). The GI50 (NCI/ADR-RES) was 2.42 µM (inactive), the GI50 (CCRF-CEM) was 0.299 µM (active) and the GI50 (NCI-H460) was 2.11 µM (inactive). The GI50 (PC-3) was 1.46 µM (inactive), the GI50 (HCC 2998) was 1.92 µM (inactive) and the GI50 (M14) was 1.64 µM (inactive). For the same compound, the GI50 (SF-539) was 1.86 µM (inactive), the GI50 (IGROV-1) was 0.527 µM (active) and the GI50 (NCI-H226) was 1.06 µM (active). For the same compound, the GI50 (OVCAR-8) was 2.28 µM (inactive), the GI50 (NCI-H23) was 2.02 µM (inactive) and the GI50 (COLO 205) was 1.75 µM (inactive). For the same compound, the GI50 (SK-MEL-5) was 1.64 µM (inactive), the GI50 (ACHN) was 1.54 µM (inactive) and the GI50 (SW-620) was 1.49 µM (inactive). For the same compound, the GI50 (SF-295) was 2.4 µM (inactive), the GI50 (Malme-3M) was 1.55 µM (inactive) and the GI50 (EKVX) was 2.76 µM (inactive). For the same compound, the GI50 (786-0) was 1.36 µM (inactive), the GI50 (TK-10) was 1.58 µM (inactive) and the GI50 (BT-549) was 1.89 µM (inactive). For the same compound, the GI50 (RXF 393) was 1.43 µM (inactive), the GI50 (HL-60) was 2.12 µM (inactive) and the GI50 (SN12C) was 1.86 µM (inactive). The GI50 (SNB-19) was 2.66 µM (inactive), the GI50 (SK-MEL-2) was 0.796 µM (active) and the GI50 (SK-OV-3) was 4.07 µM (inactive). The GI50 (HOP-92) was 1.76 µM (inactive), the GI50 (MDA-N) was 1.67 µM (inactive) and the GI50 (U-251) was 1.34 µM (inactive). The GI50 (MDA-MB-231) was 1.43 µM (inactive), the GI50 (UACC-257) was 2.24 µM (inactive) and the GI50 (RPMI-8226) was 0.229 µM (active). For the same compound, the GI50 (A549) was 2.16 µM (inactive), the GI50 (MCF7) was 1.44 µM (inactive) and the GI50 (Hs-578T) was 3.56 µM (inactive). For the same compound, the GI50 (T47D) was 1.31 µM (inactive), the GI50 (UACC-62) was 1.68 µM (inactive) and the GI50 (MDA-MB-435) was 1.69 µM (inactive). The GI50 (UO-31) was 1.56 µM (inactive), the GI50 (SR) was 0.555 µM (active) and the GI50 (SK-MEL-28) was 2.01 µM (inactive). The GI50 (A498) was 1.23 µM (inactive), the GI50 (HCT-116) was 1.52 µM (inactive) and the GI50 (DU-145) was 1.9 µM (inactive). For the same compound, the GI50 (KM12) was 1.83 µM (inactive), the GI50 (OVCAR-3) was 1.55 µM (inactive) and the GI50 (HCT-15) was 1.72 µM. The GI50 (NCI-H522) was 0.851 µM (active) and the GI50 (LOX IMVI) was 1.23 µM (inactive).
